Results published in article PMC9154192 (PLoS Biology, 2022).
Values after ≈ are worked out from the molar mass of the structure shown. Values joined by “and” are separate entries in the source; they are usually repeats but may differ in a detail not shown here. Equal values may be shown once. Read-outs that look alike come from different tables or passages of the source.

How the values were obtained:
M. tuberculosis H37Ra = experiment: microbe, parasite or virus in culture; format: cell-based, Mycobacterium tuberculosis; conditions: Mycobacterium tuberculosis, H37RA
M. tuberculosis H37Rv [1] = format: cell-based, Mycobacterium tuberculosis; conditions: for RFU/200 μl (replicates1-3), single values / RFU/ml (×104) / RFU/200 μl (average): Fig 2A
XDR M. tuberculosis [2] = format: cell-based, Mycobacterium tuberculosis
M. tuberculosis H37Rv [3] = experiment: Luminescence-based microbial cell viability assay; set-up: species or system Mycobacterium tuberculosis; conditions: for RLU/50ul (replicates1-3), single values / RLU/ml (×100) / RLU/50ul (average): Fig 2C
XDR M. tuberculosis [4] = format: cell-based, Mycobacterium tuberculosis; remark: listed apart in the source
[5] = system: GFP-expressing M. tuberculosis; format: cell-based, Mycobacterium tuberculosis; conditions: 1 μg/ml
M. tuberculosis H37Rv [6] = format: in vivo, BALB/c mice; set-up: Efficacy in BALB/C mouse model of pulmonary tuberculosis, Average / Efficacy in BALB/C mouse model of pulmonary tuberculosis, values of mice 1-6: unit not given here
in vitro = format: cell-based, murine; conditions: mouse
In short: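 MTT and WST-1 viability read-outs; cytotoxicity testing per earlier published protocols.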

[7] = format: in vivo, Crl:CD SD rats; conditions: single oral dose up to 2,000 mg/kg, SD rats, 2 weeks
Description: Toxicity studies were conducted at Biotoxtech (Korea) under review and approval from IACUC (170842, 180144, 170889) of Biotoxtech. All animals used in the toxicity test were purchased from OrientBio (Korea).
For acute toxicity study with a single oral administration, 6-week-old Crl:CD SD rats were used. For PP1S, a total of 8 groups (n = 4 rats/group) were used (0, 500, 1,000, and 2,000 mg/kg for females and males, respectively). For PP2S, a total of 4 groups (n = 5 rats/group) were used (0 and 2,000 mg/kg for females and males, respectively). […] Corn oil (Sigma, USA) was used as the vehicle. Control animals were treated only with the same volume of the vehicle.

[8] = Acute oral toxicity test in mice; format: in vivo, BALB/c mice; conditions: single oral, 5 mice; for Deaths of mice, Days after dosing 0: day 0; for Deaths of mice, Days after dosing 1: day 1; for Deaths of mice, Days after dosing 2: day 2; for Deaths of mice, Days after dosing 3: day 3; for Deaths of mice, Days after dosing 4: day 4; for Deaths of mice, Days after dosing 5: day 5; for Deaths of mice, Days after dosing 6: day 6; for Deaths of mice, Days after dosing 7: day 7; for Deaths of mice, Days after dosing 8: day 8; for Deaths of mice, Days after dosing 9: day 9; for Deaths of mice, Days after dosing 10: day 10; for Deaths of mice, Days after dosing 11: day 11; for Deaths of mice, Days after dosing 12: day 12; for Deaths of mice, Days after dosing 13: day 13; for Deaths of mice, Days after dosing 14: day 14
Description: This experiment was conducted in a toxicity test at Soonchunhyang University's Animal Biological Safety Level 2 (ABSL-2) facility. The study protocol was reviewed and approved by Soonchunhyang University Animal Ethics Committee. Six-week-old female BALB/c were purchased from Koatech (Pyeongtaek, Korea) and five mice per group were tested. Drugs were orally administered once using a zonde and observed for two weeks. Corn oil (Sigma, USA) was used as the vehicle.

[9] = drug conc. 0.39, average of each replicate set
[10] = drug conc. 0.78, average of each replicate set
[11] = drug conc. 1.56, average of each replicate set

CCCCOc1ccc2cc(CN3C(=O)CC[C@H]3C(=O)OC)c3cc(OC)c(OC)cc3c2c1 [PP2S, Methyl (S)-1-((3-butoxy-6,7-dimethoxyphenanthren-9-yl)methyl)-5-oxopyrrolidine-2-carboxylate]
MIC (M. tuberculosis H37Ra): 0.4 µg/mL (≈ 0.859 µM)
RFU/200 μl (replicates1-3), single values (M. tuberculosis H37Rv [1]; drug conc. 0.39): 54850 RFU/200 μl and 54820 RFU/200 μl and 52200 RFU/200 μl and 52110 RFU/200 μl and 58720 RFU/200 μl and 54260 RFU/200 μl and 54210 RFU/200 μl and 54470 RFU/200 μl and 54870 RFU/200 μl
RFU/ml (×104) (M. tuberculosis H37Rv [1]; drug conc. 0.39): 27.3 RFU/ml (×104)
RFU/200 μl (average) (M. tuberculosis H37Rv [1]; [9]): 54343 RFU/200 μl and 54313 RFU/200 μl and 54847 RFU/200 μl
RFU/200 μl (replicates1-3), single values (M. tuberculosis H37Rv [1]; drug conc. 0.78): 20330 RFU/200 μl and 20390 RFU/200 μl and 21500 RFU/200 μl and 21380 RFU/200 μl and 21640 RFU/200 μl and 20670 RFU/200 μl and 20960 RFU/200 μl and 20360 RFU/200 μl and 20370 RFU/200 μl
RFU/ml (×104) (M. tuberculosis H37Rv [1]; drug conc. 0.78): 10.4 RFU/ml (×104)
RFU/200 μl (average) (M. tuberculosis H37Rv [1]; [10]): 21507 RFU/200 μl and 20663 RFU/200 μl and 20363 RFU/200 μl
RFU/200 μl (replicates1-3), single values (M. tuberculosis H37Rv [1]; drug conc. 1.56): 8330 RFU/200 μl (2×) and 8470 RFU/200 μl and 8750 RFU/200 μl and 8670 RFU/200 μl and 8690 RFU/200 μl and 8240 RFU/200 μl and 8320 RFU/200 μl and 8390 RFU/200 μl
RFU/ml (×104) (M. tuberculosis H37Rv [1]; drug conc. 1.56): 4.2 RFU/ml (×104)
RFU/200 μl (average) (M. tuberculosis H37Rv [1]; [11]): 8703 RFU/200 μl and 8297 RFU/200 μl and 8397 RFU/200 μl
concentration with significant antitubercular effect (M. tuberculosis H37Rv [1]; fluorescence-based assay): 1.56 µg/mL and 0.78 µg/mL
RFU/200 μl (replicates1-3), single values (XDR M. tuberculosis [2]): 9970 RFU/200 μl and 10020 RFU/200 μl and 9360 RFU/200 μl and 9560 RFU/200 μl and 10400 RFU/200 μl and 10740 RFU/200 μl and 10810 RFU/200 μl and 10890 RFU/200 μl and 9990 RFU/200 μl and 20170 RFU/200 μl and 19980 RFU/200 μl and 20200 RFU/200 μl and 19820 RFU/200 μl and 20260 RFU/200 μl and 22530 RFU/200 μl and 22620 RFU/200 μl and 22580 RFU/200 μl and 20070 RFU/200 μl and 37150 RFU/200 μl and 37370 RFU/200 μl and 42810 RFU/200 μl and 39680 RFU/200 μl and 39960 RFU/200 μl and 41160 RFU/200 μl and 41210 RFU/200 μl and 41220 RFU/200 μl and 37280 RFU/200 μl
concentration with significant antitubercular effect (XDR M. tuberculosis [2]): 0.39 µg/mL
RLU/50ul (replicates1-3), single values (M. tuberculosis H37Rv [3]; drug conc. 0.39): 1160 RLU/50ul and 1020 RLU/50ul and 2640 RLU/50ul and 2720 RLU/50ul and 2990 RLU/50ul and 1770 RLU/50ul and 1810 RLU/50ul and 1690 RLU/50ul and 1170 RLU/50ul
RLU/ml (×100) (M. tuberculosis H37Rv [3]; drug conc. 0.39): 377.1 RLU/ml (×100)
RLU/50ul (average) (M. tuberculosis H37Rv [3]; [9]): 2783 RLU/50ul and 1757 RLU/50ul and 1117 RLU/50ul
RLU/50ul (replicates1-3), single values (M. tuberculosis H37Rv [3]; drug conc. 0.78): 410 RLU/50ul and 270 RLU/50ul and 850 RLU/50ul (2×) and 870 RLU/50ul and 620 RLU/50ul and 650 RLU/50ul and 580 RLU/50ul and 390 RLU/50ul
RLU/ml (×100) (M. tuberculosis H37Rv [3]; drug conc. 0.78): 122.0 RLU/ml (×100)
RLU/50ul (average) (M. tuberculosis H37Rv [3]; [10]): 857 RLU/50ul and 617 RLU/50ul and 357 RLU/50ul
RLU/50ul (replicates1-3), single values (M. tuberculosis H37Rv [3]; drug conc. 1.56): 120 RLU/50ul and 160 RLU/50ul and 360 RLU/50ul and 370 RLU/50ul and 420 RLU/50ul and 110 RLU/50ul and 130 RLU/50ul (2×) and 170 RLU/50ul
RLU/ml (×100) (M. tuberculosis H37Rv [3]; drug conc. 1.56): 43.8 RLU/ml (×100)
RLU/50ul (average) (M. tuberculosis H37Rv [3]; [11]): 383 RLU/50ul and 137 RLU/50ul (2×)
concentration with significant antitubercular effect (M. tuberculosis H37Rv [3]; luminescence-based assay): 1.56 µg/mL and 0.78 µg/mL
growth of M. tuberculosis in macrophages (CFU) (XDR M. tuberculosis [4]): significantly inhibited the growth
green signal of GFP-expressing M. tuberculosis in infected cells [5]: decrease in green signal
Efficacy in BALB/C mouse model of pulmonary tuberculosis, values of mice 1-6 (M. tuberculosis H37Rv [6]; Fig 4C, group dose 30): 3500000 and 3600000 and 2100000 and 2300000 and 3900000 and 3400000
Efficacy in BALB/C mouse model of pulmonary tuberculosis, Average (M. tuberculosis H37Rv [6]; Fig 4C, group dose 30, 6 mice): 3133333
Efficacy in BALB/C mouse model of pulmonary tuberculosis, Average (M. tuberculosis H37Rv [6]; Fig 4C, group dose 100, 6 mice): 550000
bacterial burden in the lungs compared to control group (M. tuberculosis H37Rv [6]; mouse, in vivo, po): significantly reduced
CC50 (in vitro; L929): > 500 µg/mL
CC50 (in vitro; Raw264.7): > 500 µg/mL
change in body weight compared to control group [7]: no significant change
clinical symptoms and death [7]: not observed
Deaths of mice, Days after dosing 0 ([8]; Dose 500 mg/kg): 0
Deaths of mice, Days after dosing 1 ([8]; Dose 500 mg/kg): 0
Deaths of mice, Days after dosing 2 ([8]; Dose 500 mg/kg): 0
Deaths of mice, Days after dosing 3 ([8]; Dose 500 mg/kg): 0
Deaths of mice, Days after dosing 4 ([8]; Dose 500 mg/kg): 0
Deaths of mice, Days after dosing 5 ([8]; Dose 500 mg/kg): 0
Deaths of mice, Days after dosing 6 ([8]; Dose 500 mg/kg): 0
Deaths of mice, Days after dosing 7 ([8]; Dose 500 mg/kg): 0
Deaths of mice, Days after dosing 8 ([8]; Dose 500 mg/kg): 0
Deaths of mice, Days after dosing 9 ([8]; Dose 500 mg/kg): 0
Deaths of mice, Days after dosing 10 ([8]; Dose 500 mg/kg): 0
Deaths of mice, Days after dosing 11 ([8]; Dose 500 mg/kg): 0
Deaths of mice, Days after dosing 12 ([8]; Dose 500 mg/kg): 0
Deaths of mice, Days after dosing 13 ([8]; Dose 500 mg/kg): 0
Deaths of mice, Days after dosing 14 ([8]; Dose 500 mg/kg): 0
Deaths of mice, Days after dosing 0 ([8]; Dose 1000 mg/kg): 0
Deaths of mice, Days after dosing 1 ([8]; Dose 1000 mg/kg): 0
Deaths of mice, Days after dosing 2 ([8]; Dose 1000 mg/kg): 0
Deaths of mice, Days after dosing 3 ([8]; Dose 1000 mg/kg): 0
Deaths of mice, Days after dosing 4 ([8]; Dose 1000 mg/kg): 0
Deaths of mice, Days after dosing 5 ([8]; Dose 1000 mg/kg): 0
Deaths of mice, Days after dosing 6 ([8]; Dose 1000 mg/kg): 0
Deaths of mice, Days after dosing 7 ([8]; Dose 1000 mg/kg): 0
Deaths of mice, Days after dosing 8 ([8]; Dose 1000 mg/kg): 0
Deaths of mice, Days after dosing 9 ([8]; Dose 1000 mg/kg): 0
Deaths of mice, Days after dosing 10 ([8]; Dose 1000 mg/kg): 0
Deaths of mice, Days after dosing 11 ([8]; Dose 1000 mg/kg): 0
Deaths of mice, Days after dosing 12 ([8]; Dose 1000 mg/kg): 0
Deaths of mice, Days after dosing 13 ([8]; Dose 1000 mg/kg): 0
Deaths of mice, Days after dosing 14 ([8]; Dose 1000 mg/kg): 0
Deaths of mice, Days after dosing 0 ([8]; Dose 2000 mg/kg): 0
Deaths of mice, Days after dosing 1 ([8]; Dose 2000 mg/kg): 0
Deaths of mice, Days after dosing 2 ([8]; Dose 2000 mg/kg): 0
Deaths of mice, Days after dosing 3 ([8]; Dose 2000 mg/kg): 0
Deaths of mice, Days after dosing 4 ([8]; Dose 2000 mg/kg): 0
Deaths of mice, Days after dosing 5 ([8]; Dose 2000 mg/kg): 0
Deaths of mice, Days after dosing 6 ([8]; Dose 2000 mg/kg): 0
Deaths of mice, Days after dosing 7 ([8]; Dose 2000 mg/kg): 0
Deaths of mice, Days after dosing 8 ([8]; Dose 2000 mg/kg): 0
Deaths of mice, Days after dosing 9 ([8]; Dose 2000 mg/kg): 0
Deaths of mice, Days after dosing 10 ([8]; Dose 2000 mg/kg): 0
Deaths of mice, Days after dosing 11 ([8]; Dose 2000 mg/kg): 0
Deaths of mice, Days after dosing 12 ([8]; Dose 2000 mg/kg): 0
Deaths of mice, Days after dosing 13 ([8]; Dose 2000 mg/kg): 0
Deaths of mice, Days after dosing 14 ([8]; Dose 2000 mg/kg): 0
